Literature values in US20240115494A1, “ENCAPSULATED COMPOSITIONS AND METHOD OF USE - AFFECTING SATIETY” (Nutragenom, LLC, priority 2021, published 2024).

Details: 100% glycerol, quoted for comparison

For `OCC(O)CO` [100% glycerol, glycerol], the “Viscosity (comparison value)” value is listed as 4,000 mPa·s.
